These results are taken from patent publication US6399655B1, “Method for the prophylactic treatment of cataracts” (Johns Hopkins University, School of Medicine, priority 1998, dated 2002).

The subject of one data set is retina. Put plainly: Retinal toxicity by electroretinography after oral genistein. The data set is classed as in vivo. Particulars: 75 mg/kg/day to 300 mg/kg/day, six months, Zucker diabetic fatty rats. The source says:
(§1) An advantage of genistein is that it is very safe and efficacious. […] Also, no effect of orally administered genistein was found with respect to the weight of the ovaries and the uterus in female rats.

Data set [1] in a line: Weight of the ovaries and the uterus after oral genistein. The data set is classed as in vivo. The note with it: oral administration, female rats.
From the text: as §1

Data set [2] relates to Zucker diabetic fatty (ZDF, fa/fa) rats. Description: Cataract formation in Zucker diabetic fatty rats fed genistein in chow for six months. The class given is in vivo, rat. On the procedure: (§2) Thirty pair of litter mates of Zucker rats, i.e., thirty male retired breeder Zucker diabetic fatty (ZDF, fa/fa) rats and thirty male retired breeder lean Zucker (fa/+) rats, were obtained (Genetic Models, Inc., Indianapolis, Ind.). The animals were treated in accordance with The Association for Research in Vision and Ophthalmology (ARVO) Statement for the Use of Animals in Ophthalmic and Vision Research. The average blood glucose value was more than 500 mg/dl for the Zucker diabetic fatty rats and 120 mg/dl for the control lean rats as measured by glucose oxidase assay at the time of death (Danis et al. (1993), supra).
(§3) Zucker diabetic fatty rats were divided into four groups and fed Purina 5008 rat chow containing varying concentrations of genistein: 0 mg/kg chow, 75 mg/kg chow, 150 mg/kg chow and 300 mg/kg chow. Cataract formation was assessed after six months of treatment. The extent of cataract formation was determined after dilating pupils with phenylephrine (2.5%) and Tropicamide (1%) in rats under general anesthesia resulting from intraperitoneal injections of ketamine (40 mg/kg) and xylazine (4 mg/kg). Disease progression was categorized as total cataract, partial cataract (mainly minimal posterior subcapsular cataract), or no cataract.

A short description of data set [3]: Food intake and body weight after oral genistein. The class given is in vivo. Particulars: oral administration, male and female rats.
From the text: as §1

Another data set relates to lean Zucker (fa/+) rats. Put plainly: Cataract formation in lean Zucker control rats fed genistein in chow. The class given is in vivo, rat. The note with it: lean Zucker rats, 0, 75, 150 or 300 mg Genistein/kg chow, six months. How it is done: as §2, §3
Zucker lean rats were also divided into 4 groups and fed Purina 5008 chow containing 0, 75, 150 or 300 mg Genistein/ kg chow. […]

Molecules are shown by their SMILES.

As to `O=c1c(-c2ccc(O)cc2)coc2cc(O)cc(O)c12` [genistein, 5,7-dihydroxy-3-(4-hydroxyphenyl)-4H-1-benzopyran-4-one], the “Toxicity to the retina as measured by electroretinography” value with retina is reported as “nontoxic to the retina”. Besides, the “Effect on weight of the ovaries and the uterus” value in data set [1] is recorded as “no effect”. In addition, in data set [2] (75 mg/kg chow, n = 7), the “Partial Cataract (number of rats)” value came to 3 and the “Total Cataract (number of rats)” value came to 4. Besides, in data set [2] (150 mg/kg chow, n = 8), the “No Cataract (number of rats)” value is on record as 2, the “Partial Cataract (number of rats)” value turned out to be 2 and the “Total Cataract (number of rats)” value is recorded as 4. In data set [2] (300 mg/kg chow, n = 8), the “Partial Cataract (number of rats)” value is 3 and the “Total Cataract (number of rats)” value was 5. Further, the “Inhibition of cataract formation” value in data set [2] (75-300 mg/kg chow) was “significantly inhibits cataract formation”. Also, in data set [3], the “Effect on body weight” value is listed as “no effect” and the “Effect on food intake” value is “no effect”. Besides, the “Cataracts in lean control rats” value with lean Zucker (fa/+) rats is reported as “not present”.
